This note sets out measurements from ChEMBL document CHEMBL5096157, “Metalloaminopeptidases of the Protozoan Parasite Plasmodium falciparum as Targets for the Discovery of Novel Antimalarial Drugs” (J Med Chem, 2021).

Series [1] in a line: Inhibition of Plasmodium falciparum M18 aspartyl aminopeptidase assessed as inhibition constant.
The test system of series [2] is Plasmodium falciparum. Description: Antimalarial activity against erythrocytic stage Plasmodium falciparum in human RBC assessed as inhibition of parasite growth incubated for 48 hrs by [3H]hypoxanthine incorporation assay. To be noted: Erythrocyte. It is filed as functional, organism-based, Red blood cell.
Series [3] deals with Plasmodium falciparum. Description: Antimalarial activity against erythrocytic stage Plasmodium falciparum in human RBC assessed as inhibition of parasite growth at 10 uM incubated for 48 hrs by [3H]hypoxanthine incorporation assay relative to control. The format is functional, Red blood cell. Details: scale not given: the % may be the effect or the level left.
Series [4] is described as follows: Half life in CD-1 mouse at 3 mg/kg, iv measured after 8 hrs hrs by UHPLC analysis. It is filed as ADME, organism-based. To be noted: in vivo.
Series [5] concerns Plasmodium falciparum. Description: Antimalarial activity against Plasmodium falciparum chloroquine-resistant FcB1 Columbia assessed as inhibition of growth by liquid scintillation counting method. It is filed as functional, organism-based.
Series [6] can be described thus: Clearance in CD-1 mouse at 3 mg/kg, iv measured after 8 hrs hrs by UHPLC analysis. The format is ADME, organism-based. As to conditions: in vivo.
In series [7] the test system is Plasmodium falciparum. Description: Antimalarial activity against Plasmodium falciparum 3D7 CQ-sensitive assessed as inhibition of growth by liquid scintillation counting method. It is filed as functional, organism-based.
Series [8] deals with Plasmodium chabaudi. The series is described as follows: In vivo antiplasmodial activity against Plasmodium chabaudi chabaudi 864VD infected in BALB/c mouse assessed as reducing parasitaemia at 12 to 24 mg/kg, ip administered for 3 days after infection and measured after 25 days Giemsa staining based microscopic analysis relative to control. The format is functional. Details: scale not given: the % may be the effect or the level left. As to conditions: dose 12-24 mg/kg, time 25 day.

Series [9] is described as follows: Inhibition of recombinant Plasmodium falciparum A-M17 assessed as inhibition constant using leucine para-nitroanilide as substrate at 60 nM by spectrophotometer based method.
Series [10] can be described thus: Inhibition of recombinant Plasmodium falciparum A-M1 assessed as inhibition constant using para-nitroanilide as substrate at 10 nM by spectrophotometer based method.
Series [11] is described as follows: Inhibition of recombinant Plasmodium falciparum A-M17 assessed as inhibition constant using H-Leu-NHMec as substrate.
The subject of series [12] is Plasmodium falciparum. Description: Antimalarial activity against Plasmodium falciparum D10 incubated for 48 hrs by [3H]hypoxanthine incorporation assay. It is filed as functional, organism-based.
A short description of series [13]: Inhibition of recombinant Plasmodium falciparum A-M1 using Leu-pNA as substrate by microplate reader analysis.
In another series the test system is Plasmodium yoelii. Description: In vivo antiplasmodial activity against Plasmodium yoelii 17X infected in C57BL6 mouse assessed as mean survival time at 20 mg/kg, ip administered twice daily for 4 days after 2 hrs infection Giemsa staining based microscopic analysis relative to control. The format is functional. To be noted: time 4 day.
In another series the test system is Plasmodium berghei. The series is described as follows: In vivo antiplasmodial activity against Plasmodium berghei K173 infected in C57BL6 mouse assessed as mean survival time at 20 mg/kg, ip administered twice daily for 4 days after 2 hrs infection Giemsa staining based microscopic analysis relative to control. The format is functional. As to conditions: time 4 day.

Series [14] relates to Plasmodium falciparum. The series is described as follows: Antimalarial activity against multidrug resistant Plasmodium falciparum Dd2 incubated for 48 hrs by [3H]hypoxanthine incorporation assay based MicroBeta plate reader.
The subject of series [15] is Plasmodium falciparum. The series is described as follows: Antimalarial activity against Plasmodium falciparum 3D7 CQ-sensitive incubated for 48 hrs by [3H]hypoxanthine incorporation assay based MicroBeta plate reader.
A short description of series [16]: Binding affinity to Plasmodium falciparum recombinant MetAP2 by Dex-Fum-mediated mammalian three-hybrid assay.
Series [17] concerns Plasmodium falciparum. The series is described as follows: Antimalarial activity against multidrug resistant Plasmodium falciparum W2 assessed as reduction in proliferation incubated for 24 hrs. To be noted: W2, 24 h. The format is functional, organism-based.
In series [18] the test system is Plasmodium falciparum. Description: Antimalarial activity against Plasmodium falciparum NF54 wild-type assessed as reduction in proliferation incubated for 24 hrs by [3H]hypoxanthine incorporation assay. The format is functional, organism-based.
The subject of series [19] is Plasmodium falciparum. Description: Antimalarial activity against Plasmodium falciparum 3D7 incubated for 48 hrs by [3H]hypoxanthine incorporation assay. The format is functional, organism-based.
Series [20] has as its system Plasmodium chabaudi. Description: In vivo antiplasmodial activity against Plasmodium chabaudi chabaudi infected in C57/BL6J mouse assessed as reducing parasitaemia at 25 mg/kg, po administered for 4 days relative to control. The format is functional. More on the design: scale not given: the % may be the effect or the level left. As to conditions: time 4 day.
In series [21] the test system is Plasmodium chabaudi. The series is described as follows: In vivo antiplasmodial activity against Plasmodium chabaudi chabaudi infected in C57/BL6J mouse assessed as reducing parasitaemia at 50 to 100 mg/kg, po administered for 4 days relative to control. More on the design: scale not given: the % may be the effect or the level left. The format is functional. As to conditions: dose 50-100 mg/kg, time 4 day.

Series [22] has as its system Plasmodium falciparum. The series is described as follows: Antimalarial activity against Plasmodium falciparum K1 incubated for 48 hrs by [3H]hypoxanthine incorporation assay. It is filed as functional, organism-based.
The subject of series [23] is Plasmodium chabaudi. Description: In vivo antiplasmodial activity against Plasmodium chabaudi chabaudi infected in C57/BL6J mouse assessed as reducing parasitaemia at 50 mg/kg, po administered for 4 days relative to control. As to conditions: time 4 day. Details: scale not given: the % may be the effect or the level left. It is filed as functional.
Series [24] is described as follows: Inhibition of Plasmodium falciparum alanyl aminopeptidase assessed as inhibition constant using H-Leu-NHMec as substrate by spectrofluorimeter based analysis.
In series [25] the test system is Plasmodium chabaudi. Description: In vivo antiplasmodial activity against Plasmodium chabaudi chabaudi infected in C57/BL6J mouse assessed as reducing parasitaemia at 100 mg/kg, po administered for 4 days relative to control. The format is functional. More on the design: scale not given: the % may be the effect or the level left. To be noted: time 4 day.

Where “and” joins values, the source holds several entries; their conditions need not be identical. Equal entries are not always repeated.

As a reminder, the Ki is a dissociation constant, usually derived from enzyme kinetics or from competition with a known ligand. The term IC50 denotes the concentration needed to halve the response being measured. One may read the half-life as the time needed for the level to fall by half in the phase considered. Broadly, the clearance is the volume of plasma or blood freed of the substance per unit of time.

As to `N[C@@H](CCC(=O)O)P(=O)(O)O`, the Ki in [1] was found to be 0.34 µM.

Take `Oc1ccc(CCNc2c3ccccc3nc3ccccc23)cc1O`: the 50% inhibitory concentration (IC50) with Plasmodium falciparum [2] is 1.3 µM. For the same compound, the Activity in the series on Plasmodium falciparum [3] is reported as 96%.

In series [4], `NC1CCc2cccc(-c3ccccc3)c2CC1=O` (stereo unspecified) showed a half-life of 2.2 h. Moreover, the values for the IC50 in the series on Plasmodium falciparum [5] and in the series on Plasmodium falciparum [7] were 6.5 µM and 11.2 µM, respectively. This compound also displayed a clearance in series [6] of 43 mL/min/kg. In the series on Plasmodium chabaudi [8], the Activity came to 40%. Further, the figures for the Ki in series [9] and in [10] were above 100 µM and 0.05 µM, respectively.

For `CC(C)C[C@H](NC(=O)[C@@H](O)[C@H](N)Cc1ccc([N+](=O)[O-])cc1)C(=O)O`, in [11], the Ki was 0.0027 µM. Also, the IC50 in the series on Plasmodium falciparum [12] turned out to be 8 µM.

With `CC(C)CN(CCCN1CCN(CCCNc2ccnc3cc(Cl)ccc23)CC1)C(=O)CC(=O)NO`, the IC50 in [13] was 0.854 µM.

With `Cc1nc(-c2ccccn2)nc(NCCc2ccccc2)c1Cl`, the figures for the Activity in the series with Plasmodium yoelii and in the series on Plasmodium berghei were 80% and 60%, respectively. For the same compound, the 50% inhibitory concentration (IC50) in the series with Plasmodium falciparum [14] amounted to 0.9 µM; with Plasmodium falciparum [15] it was 1.59 µM.

In the case of `CO[C@]12C(=O)CC[C@@]1(CO)[C@H]2[C@@]1(C)O[C@@H]1CC=C(C)C`, the IC50 was determined as 116 µM in [16], 0.27 µM in the series on Plasmodium falciparum [17] and 0.16 µM with Plasmodium falciparum [18].

Take `CO[C@H](C(=O)NO)[C@@H](CC(C)C)C(=O)N[C@H](C(=O)O)c1ccccc1`: the inhibition constant Ki in series [11] is 25 µM and 25.7 µM. For the same compound, the 50% inhibitory concentration (IC50) in the series on Plasmodium falciparum [19] is 2 µM.

Consider `CO[C@H](C(=O)NO)[C@@H](CC(C)C)C(=O)N[C@H](C(=O)OC1CCCC1)c1ccccc1`, for which the Ki in series [11] was 75 µM and 76 µM. Also, the half-inhibitory concentration (IC50) in the series on Plasmodium falciparum [19] amounted to 0.37 µM; in the series on Plasmodium falciparum [22] it was 0.376 µM. For the same compound, the Activity was 43% with Plasmodium chabaudi [20], 66% with Plasmodium chabaudi [21] and 52% with Plasmodium chabaudi [23].

Regarding `NC(CCc1ccccc1)P(=O)(O)CC(Cc1ccc(O)cc1)C(=O)O` (stereo unspecified), the Ki in series [24] amounted to 0.232 µM.

Consider `NCCC(=O)N(CCCN1CCN(CCCNc2ccnc3cc(Cl)ccc23)CC1)CC1CC1`, for which the IC50 in series [13] worked out at 21 µM.

Take `CC(C)CN(CCCN1CCN(CCCNc2ccnc3cc(Cl)ccc23)CC1)C(=O)C(N)C(=O)NO` (stereo unspecified): the IC50 in [13] was 2.5 µM.

As for `CO[C@H]1[C@H](C2(C)O[C@@H]2CC=C(C)C)[C@]2(CC[C@H]1OC(=O)NC(=O)CCl)CO2` (single isomer, unassigned), the values for the 50% inhibitory concentration (IC50) (in series [16]; in the series on Plasmodium falciparum [17]; in the series on Plasmodium falciparum [18]) were 2 µM, 0.003 µM and 0.002 µM, respectively.

Turning to `CN1CCc2cccc3c2[C@@H]1Cc1ccc(O)c(O)c1-3` [(S)APOMORPHINE], the IC50 in the series with Plasmodium falciparum [2] was found to be 4 µM. Besides, the Activity in the series with Plasmodium falciparum [3] is listed as 87%.

For the compound `COC(=O)[C@H](CC(C)C)NC(=O)[C@@H](O)[C@H](N)Cc1ccccc1` [BESTATIN METHYL ESTER], the Ki in series [11] came out at 0.138 µM. The same compound registered an IC50 in the series on Plasmodium falciparum [12] of 20.5 µM.

In the case of `CC(C)C[C@H](NC(=O)[C@@H](O)[C@H](N)Cc1ccccc1)C(=O)O` [UBENIMEX], the figures for the IC50 in the series on Plasmodium falciparum [19] and in the series with Plasmodium falciparum [12] were 5 µM and 14.9 µM, respectively. In the series on Plasmodium chabaudi [25], the Activity turned out to be 34%.
